Test results from patent US12264173B2 (GILEAD SCIENCES, INC., priority 2020, dated 2025).
pEC50: −log10 of the molar value. Read-outs that look alike come from different tables or passages of the source.

Legend:
Format in all cases: cell-based
RSV strain A2 = assay: microbe, parasite or virus in culture; conditions: read-out: RSV HEp-2 EC50
Experimental: Antiviral activity against RSV is determined using an infectious cytopathic cell protection assay in HEp-2 cells. In this assay, compounds inhibiting viral infection and/or replication produce a cytoprotective effect against the virus-induced cell killing that can be quantified using a cell viability reagent. The techniques used here are novel adaptations of methods described in published literature (Chapman et al., Antimicrob Agents Chemother. 2007, 51(9):3346-53.).
HEp-2 cells are obtained from ATCC (Manassas, VI) and maintained in MEM media supplemented with 10% fetal bovine serum and penicillin/streptomycin. Cells are passaged twice a week and kept at subconfluent stage. Commercial stock of RSV strain A2 (Advanced Biotechnologies, Columbia, MD) is titered before compound testing to determine the appropriate dilution of the virus stock that generates desirable cytopathic effect in HEp-2 cells.
For antiviral tests, HEp-2 cells are grown in large cell culture flasks to near confluency but not fully so. The compounds to be tested are prediluted in DMSO in 384-well compound dilution plates, either in an 8 or 40 sample per plate standardized dose response format. 3-fold serial dilution increments of each test compound are prepared in the plates and test samples are transferred via acoustic transfer apparatus (Echo, Labcyte) at 100 nL per well into cell culture assay 384-well plates. Each compound dilution is transferred in single or quadruplicate samples into dry assay plates, which are stored until assay is ready to go. The positive and negative controls are laid out in opposite on ends of the plate in vertical blocks (1 column).
Subsequently, an infectious mixture is prepared using an appropriate dilution of virus stock previously determined by titration with cells at a density of 50,000/mL and 20 µL/well is added to test plates w/compounds via automation (uFlow, Biotek). Each plate includes negative and positive controls (16 replicates each) to create 0% and 100% virus inhibition standards, respectively. Following the infection with RSV, testing plates are incubated for 4 days in a 37° C. cell culture incubator. After the incubation, a cell viability reagent, Cell TiterGlo (Promega, Madison, WI) is added to the assay plates, which are incubated briefly, and a luminescent readout is measured (Envision, Perkin Elmer) in all the assay plates. The RSV-induced cytopathic effect, percentage inhibition, is determined from the levels of remaining cell viability. […] Various potent anti-RSV tool compounds are used as positive controls for antiviral activity.

RSV A2 = assay: RSV NHBE EC50 (RSV A2 antiviral assay in NHBE cells); conditions: read-out: RSV NHBE EC50
Experimental: Normal human bronchial epithelial (NHBE) cells were purchased from Lonza (Walkersville, MD, Cat #CC-2540) and cultured in Bronchial Epithelial Growth Media (BEGM) (Lonza, Walkersville, MD, Cat #CC-3170). The cells were passaged 1-2 times per week to maintain <80% confluency. The NHBE cells were discarded after 6 passages in culture.
To conduct the RSV A2 antiviral assay, NHBE cells were plated in 96-well plates at a density of 7,500 cells per well in BEGM and allowed to attach overnight at 37° C. Following attachment, 100 μL of cell culture media was removed and 3-fold serially diluted compound was added using a Hewlett-Packard D300 Digital Dispenser. The final concentration of DMSO was normalized to 0.05%. Following compound addition, the NHBE cells were infected by the addition of 100 μL of RSV A2 at a titer of 1×10^4.5 tissue culture infectious doses/mL in BEGM and then incubated at 37° C. for 4 days. The NHBE cells were then allowed to equilibrate to 25° C. and cell viability was determined by removing 100 μL of culture medium and adding 100 μL of Cell-Titer Glo viability reagent. The mixtures were incubated for 10 minutes at 25° C., and the luminescence signal was quantified on an Envision luminescence plate reader.

HRV16 = HRV16 HeLa EC50 (cytopathic effect in H1-HeLa cells); conditions: read-out: HRV16 HeLa EC50
Experimental: H1-HeLa cells, cultured in complete DMEM medium containing 10% heat-inactivated FBS and 1% Penicillin/Streptomycin, were seeded in 96 well plates at 3000 cells/well one day prior to compound dosing and infection. The antiviral activity of each compound was measured in triplicate. Compounds were added directly to the cell cultures in serial 3-fold dilutions using the HP300 digital dispenser (Hewlett Packard, Palo Alto, CA) immediately prior to infection. The plates were transferred to BSL-2 containment and the appropriate dilution of virus stock, previously determined by titration and prepared in cell culture media, was added to test plates containing cells and serially diluted compounds. Each plate included 6 wells of infected untreated cells and 6 wells of uninfected cells that served as 0% and 100% virus inhibition control, respectively. Following the infection, test plates were incubated for 96 h in a tissue culture incubator set to 33° C./5% CO2. Following incubation, the H1-HeLa cells were removed from incubation and allowed to equilibrate to 25° C. Cell viability was determined by removing 100 μL of culture medium and adding 100 μL of Cell-Titer Glo viability reagent. The mixtures were incubated on a shaker for 10 minutes at 25° C., and the luminescence signal was quantified on an Envision luminescence plate reader.

[1] = human respiratory syncytial virus, HEp-2, 96 h, Table 3, HEp-2 cells, RSV A2, 4 days
[2] = human respiratory syncytial virus, NHBE, 96 h, Table 3, NHBE cells, RSV A2, 4 days
[3] = 96 h, Table 3, H1-HeLa cells, 96 h

SMILES | pEC50 (RSV strain A2; [1]) | pEC50 (RSV strain A2; human respiratory syncytial virus, HEp-2, Table 5 comparative activity, 2',3'-OH vs -OC(O)iPr) | pEC50 (RSV A2; [2]) | pEC50 (RSV A2; human respiratory syncytial virus, NHBE, Table 5 comparative activity, 2',3'-OH vs -OC(O)iPr) | pEC50 (HRV16; [3]) | pEC50 (HRV16; HeLa, Table 5 comparative activity, 2',3'-OH vs -OC(O)iPr) | pEC50 (RSV strain A2; Table 3, HEp-2 cells, RSV A2, 4 days) | pEC50 (RSV A2; Table 3, NHBE cells, RSV A2, 4 days) | pEC50 (HRV16; Table 3, H1-HeLa cells, 96 h)
CC(C)C(=O)O[C@H]1[C@H](c2ccc3c(N)ncnn23)O[C@](C#N)(COP(=O)(N[C@@H](C)C(=O)O[C@H]2CCN(C)C2)Oc2ccccc2)[C@H]1OC(=O)C(C)C (stereo partly drawn) [Example 228, (2R,3S,4S,5S)-5-(4-aminopyrrolo[2,1-f][1,2,4]triazin-7-yl)-2-cyano-2-((((((S)-1-(((S)-1-methylpyrrolidin-3-yl)oxy)-1-oxopropan-2-yl)amino)(phenoxy)phosphoryl)oxy)methyl)tetrahydrofuran-3,4-diyl bis(2-methylpropanoate)] | 7.08 | 7.08 | 7.23 | 7.23 | 6.02 | 6.02 |  |  | 
COCCC(=O)O[C@H]1[C@H](c2ccc3c(N)ncnn23)O[C@](C#N)(CO[P@@](=O)(N[C@@H](C)C(=O)OC)Oc2ccccc2)[C@H]1OC(=O)CCOC [Example 231, (2R,3S,4S,5S)-5-(4-aminopyrrolo[2,1-f][1,2,4]triazin-7-yl)-2-cyano-2-((((S)-(((S)-1-methoxy-1-oxopropan-2-yl)amino)(phenoxy)phosphoryl)oxy)methyl) tetrahydrofuran-3,4-diyl bis(3-methoxypropanoate)] | 6.91 |  | 7.12 |  | 5.76 |  |  |  | 
CC(C)C(=O)O[C@H]1[C@H](c2ccc3c(N)ncnn23)O[C@](C#N)(COP(=O)(N[C@@H](C)C(=O)O[C@@H]2CCN(C)C2)Oc2ccccc2)[C@H]1OC(=O)C(C)C (stereo partly drawn) [Example 232, (2R,3S,4S,5S)-5-(4-aminopyrrolo[2,1-f][1,2,4]triazin-7-yl)-2-cyano-2-((((((S)-1-(((R)-1-methylpyrrolidin-3-yl)oxy)-1-oxopropan-2-yl)amino)(phenoxy)phosphoryl)oxy)methyl)tetrahydrofuran-3,4-diyl bis(2-methylpropanoate)] | 7.02 |  | 7.28 |  | 6.06 |  |  |  | 
COC(=O)[C@H](C)NP(=O)(OC[C@@]1(C#N)O[C@@H](c2ccc3c(N)ncnn23)[C@H](OC(=O)C(C)C)[C@@H]1OC(=O)C(C)C)Oc1ccc(C[C@H](N)C(=O)OC)cc1 (stereo partly drawn) [Example 235, (2R,3S,4S,5S)-2-((((4-((S)-2-amino-3-methoxy-3-oxopropyl)phenoxy)(((S)-1-methoxy-1-oxopropan-2-yl)amino)phosphoryl)oxy)methyl)-5-(4-aminopyrrolo[2,1-f][1,2,4]triazin-7-yl)-2-cyanotetrahydrofuran-3,4-diyl bis(2-methylpropanoate)] | 6.13 |  | 6.95 |  | 5.64 |  |  |  | 
CC(C)C(=O)O[C@H]1[C@H](c2ccc3c(N)ncnn23)O[C@](C#N)(COP(=O)(N[C@@H](C)C(=O)OCc2ccccc2)Oc2ccccc2)[C@H]1OC(=O)C(C)C (stereo partly drawn) [Example 236, (2R,3S,4S,5S)-5-(4-aminopyrrolo[2,1-f][1,2,4]triazin-7-yl)-2-((((((S)-1-(benzyloxy)-1-oxopropan-2-yl)amino)(phenoxy)phosphoryl)oxy)methyl)-2-cyanotetrahydrofuran-3,4-diyl bis(2-methylpropanoate)] | 7.31 |  | 7.62 |  | 6.87 |  |  |  | 
CC(C)C(=O)O[C@H]1[C@H](c2ccc3c(N)ncnn23)O[C@](C#N)(COP(=O)(N[C@@H](C)C(=O)OCCCN2CCOCC2)Oc2ccccc2)[C@H]1OC(=O)C(C)C (stereo partly drawn) [Example 237, (2R,3S,4S,5S)-5-(4-aminopyrrolo[2,1-f][1,2,4]triazin-7-yl)-2-cyano-2-((((((S)-1-(3-morpholinopropoxy)-1-oxopropan-2-yl)amino)(phenoxy)phosphoryl)oxy)methyl) tetrahydrofuran-3,4-diyl bis(2-methylpropanoate)] | 6.97 |  | 7.37 |  | 6.32 |  |  |  | 
CC(C)C(=O)O[C@H]1[C@H](c2ccc3c(N)ncnn23)O[C@](C#N)(COP(=O)(N[C@@H](C)C(=O)OCC2CC2)Oc2ccccc2)[C@H]1OC(=O)C(C)C (stereo partly drawn) [Example 238, (2R,3S,4S,5S)-5-(4-aminopyrrolo[2,1-f][1,2,4]triazin-7-yl)-2-cyano-2-((((((S)-1-(cyclopropylmethoxy)-1-oxopropan-2-yl)amino)(phenoxy)phosphoryl)oxy)methyl) tetrahydrofuran-3,4-diyl bis(2-methylpropanoate)] |  |  |  |  |  |  | 7.57 | 7.55 | 7.00
CCC(CC)COC(=O)[C@H](C)NP(=O)(O)OC[C@@]1(C#N)O[C@@H](c2ccc3c(N)ncnn23)[C@H](OC(=O)C(C)C)[C@@H]1OC(=O)C(C)C [Example 239, ((2R,3S,4S,5S)-5-(4-aminopyrrolo[2,1-f][1,2,4]triazin-7-yl)-2-cyano-3,4-bis(isobutyryloxy)tetrahydrofuran-2-yl)methyl ((S)-1-(2-ethylbutoxy)-1-oxopropan-2-yl)phosphoramidate] | < 5.01 |  | 5.65 |  | < 4.30 |  |  |  | 
